Data from BindingDB's records for doi:10.1016/j.bmc.2006.10.040 (University of Camerino, 2007).
pEC50: −log10 of the molar value.

Legend:
[1] = target: T1, Muscarinic acetylcholine receptor M2 (Homo sapiens, UniProt P08172); assay: Agonist activity at human muscarinic M2 receptor expressed in CHO cells
T1 sequence (P08172 whole entry): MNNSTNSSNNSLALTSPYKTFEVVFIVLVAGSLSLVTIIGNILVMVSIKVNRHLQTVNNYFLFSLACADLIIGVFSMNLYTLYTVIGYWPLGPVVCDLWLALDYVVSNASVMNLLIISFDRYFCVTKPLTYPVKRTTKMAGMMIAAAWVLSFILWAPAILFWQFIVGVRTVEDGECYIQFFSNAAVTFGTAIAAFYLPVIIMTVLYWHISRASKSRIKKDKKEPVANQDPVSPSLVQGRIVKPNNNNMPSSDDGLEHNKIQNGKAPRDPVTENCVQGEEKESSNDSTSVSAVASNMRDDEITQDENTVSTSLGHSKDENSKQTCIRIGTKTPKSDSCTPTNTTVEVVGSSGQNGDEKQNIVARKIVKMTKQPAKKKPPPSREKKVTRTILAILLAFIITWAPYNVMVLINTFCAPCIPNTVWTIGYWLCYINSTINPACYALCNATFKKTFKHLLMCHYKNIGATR

[2] = target: T2, Muscarinic acetylcholine receptor M5 (Homo sapiens, UniProt P08912); assay: Agonist activity at human muscarinic M5 receptor expressed in CHO cells
T2 sequence (P08912 whole entry): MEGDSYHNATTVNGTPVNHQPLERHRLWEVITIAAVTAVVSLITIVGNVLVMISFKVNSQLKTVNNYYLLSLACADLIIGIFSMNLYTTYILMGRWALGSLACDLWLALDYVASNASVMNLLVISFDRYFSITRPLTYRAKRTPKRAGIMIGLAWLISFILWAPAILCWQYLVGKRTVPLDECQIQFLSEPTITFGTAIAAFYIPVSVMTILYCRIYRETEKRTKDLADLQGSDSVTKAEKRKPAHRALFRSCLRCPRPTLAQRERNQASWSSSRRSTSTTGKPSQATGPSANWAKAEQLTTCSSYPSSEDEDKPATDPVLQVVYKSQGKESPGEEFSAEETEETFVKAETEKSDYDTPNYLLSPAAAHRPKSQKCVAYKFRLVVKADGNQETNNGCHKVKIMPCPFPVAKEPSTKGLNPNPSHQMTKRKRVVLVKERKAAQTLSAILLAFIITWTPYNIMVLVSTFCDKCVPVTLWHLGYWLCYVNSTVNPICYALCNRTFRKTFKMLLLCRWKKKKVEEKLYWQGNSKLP

SMILES	pEC50 [1]	pEC50 [2]
C[C@@H]1COC[C@H](C[N+](C)(C)C)O1	4.81	–
C[C@H]1COC[C@@H](C[N+](C)(C)C)O1	4.43	5.43
CC1COCC(C[N+](C)(C)C)O1 (centres undefined)	–	5.10
